1 compound from US20040259765A1, “Formulations of non-steroidal anti-inflammatory agents to treat pathologic ocular angiogenesis” (priority 2003, published 2004) can be followed below.

This assay deals with retinal neovascularization. In words: rat pup model of retinopathy of prematurity (oxygen-induced retinopathy). The assay is classed as in vivo. The conditions noted are these: local administration, FIG. 1. As for the experimental part: FIG. 1. […] Anecortave acetate was tested for its angiostatic efficacy in a rat pup model of retinopathy of prematurity (Penn, at al., Investigative Ophthalmology & Visual Science, “The Effect of an Angiostatic Steroid on Neovascularization in a Rat Model of Retinopathy of Prematurity,” Vol. 42(1):283-290, January 2001). Newborn rat pups were placed in an atmosphere of varying oxygen content. The rats received a single intravitreal injection of vehicle or anecortave acetate (500 μg) upon return to room air (day 14) or 2 days later (day 16). There was significant retinal neovascularization in the rats that received vehicle injections.

SMILES strings stand for the structures.

Consider `CC(=O)OCC(=O)[C@@]1(O)CC[C@H]2[C@@H]3CCC4=CC(=O)CC[C@]4(C)C3=CC[C@@]21C` [Anecortave acetate, 4,9(11)-pregnadien-17α,21-diol-3,20dione-21-acetate], for which the “preretinal neovascularization (neovascular score)” value is given as “inhibits”.
